{"source": "paper PMC10645073", "about": "“Interaction of gallium, indium and vanadyl diacetylcurcumin complexes with lysozyme: mechanistic aspects and evaluation of antiamyloidogenic activity” (Royal Society Open Science, 2023)", "key": {"[1]": {"target": "T1, hen egg white lysozyme (HEWL) (Gallus gallus, UniProt P00698)", "T1 construct": "whose 129 amino acid residues are linked together by four disulfide bridges to form a single polypeptide chain; purchased Sigma-Aldrich L6876; host or cells: hen egg white (natural source, per the protein's name)", "experiment": "Intrinsic fluorescence quenching of HEWL (Stern-Volmer, double logarithmic and van't Hoff analysis)", "format": "binding", "conditions": "for KSV (Stern-Volmer quenching constant): HEWL 3 µM; for kq (bimolecular quenching rate constant): kq = KSV/τ0, τ0 10^−8 s", "description": "The intrinsic fluorescence spectra of HEWL (3 µM) in the absence and presence of Ga(DAC)3, In(DAC)3 and VO(DAC)2 complexes were collected using a Varian Cary Eclipse fluorescence spectrophotometer equipped with a 10 mm quartz cell by adjusting the excitation wavelength to 295 nm and setting the width of both excitation and emission slits at 5 nm. After adding the mentioned concentrations of the metal complexes of diacetylcurcumin to HEWL solution, the samples were scanned in the wavelength range of 300–500 nm. Corrections were made for the inner filter effect on the fluorescence spectra according to the following equation: Fcor=Fobs×10^(Aex+Aem)/2, where Fcor is corrected fluorescence intensity, Fobs is the observed (uncorrected) fluorescence intensity, Aex is the absorbance at the fluorescence excitation wavelength and Aem is the absorbance at the selected fluorescence emission wavelength.\nThe fluorescence quenching process of HEWL in the presence of three metal complexes of diacetylcurcumin can be quantified according to the well-known Stern-Volmer equation:3.1 F0/F=1+KSV[Q]=1+kqτ0[Q],\nwhere F0 and F represent the intrinsic emission intensities of HEWL fluorophores, respectively, in the absence and presence of the metal complexes of diacetylcurcumin, and [Q] is the molar concentration of quencher. KSV, kq and τ0 denote the Stern-Volmer quenching constant, bimolecular quenching rate constant, and the average lifetime of fluorophore without quencher, respectively. The value of KSV, as a parameter of the sensitivity of the fluorophore to a quencher, can be estimated from the slope of the linear plot of F0/F as a function of [Q] (figure 2d,e,f; electronic supplementary material, figure S1). To obtain more accurate quantification of fluorescence data, the total area of the emission fluorescence peaks (S0 and S) was applied instead of the emission fluorescence intensities (F0 and F). The fluorescence quenching phenomenon can be generally divided into two distinct classes: static quenching and dynamic quenching. Owing to the reciprocal and direct correlations between the KSV parameter and temperature, respectively, for static and dynamic quenching, the observed trend in the KSV value versus temperature can be used to distinguish these mechanisms from each other. In dynamic quenching, an increase in temperature leads to faster diffusion of molecules by which weakly bound nonfluorescent complexes are further dissociated, and the value of KSV increases. From the data recorded in table 1, it can be seen that the KSV value of HEWL/Ga(DAC)3 and HEWL/In(DAC)3 systems decreases as temperature increases, while it increases with increasing temperature for the HEWL/VO(DAC)2 system. […] Considering a lifetime value of 10^−8 s for the native fluorophores, [27] the equation kq = KSV/τ0 gives the kq values greater than the diffusion-limited quenching value of 2.0 × 10 ^+ 10 M^−1 s^−1 for all systems.\nAssuming that all the binding sites of HEWL are identical and independent and an equilibrium interaction is established between HEWL and each of the metal complexes of diacetylcurcumin, the fluorescence quenching process can be further analysed by the following double logarithmic equation:3.2 log(F0−F/F)=logKb+nlog[Q], where Kb and n represent the binding constant and number of binding sites on each HEWL molecule, respectively. Plotting log[(F0 − F)/F] versus log[Q] produces a straight line whose slope and intercept can be used respectively to estimate the values of n and Kb (electronic supplementary material, figures S2A, S2B, S2C and S3). […] In other words, the resulting bioconjugates are the product of the interaction between HEWL and the metal complexes of diacetylcurcumin with a 1 : 1 stoichiometry. […]"}, "[2]": {"target": "T1, hen egg white lysozyme (HEWL)", "experiment": "Synchronous fluorescence spectroscopy of HEWL", "format": "binding", "conditions": "Δλ = 60 nm", "description": "To obtain synchronous fluorescence spectra, simultaneous scanning of excitation and emission monochromators was performed in such a way as to maintain a constant wavelength interval between them. The changes in the molecular microenvironment of tyrosine and tryptophan residues of HEWL were monitored by fixing the wavelength interval (Δλ = λem − λex) individually at 15 and 60 nm, respectively. The concentrations of HEWL and three metal complexes of diacetylcurcumin were the same as those mentioned for the intrinsic fluorescence spectroscopy.\nTo investigate the effect of the metal complexes of diacetylcurcumin on the conformation of tyrosine and tryptophan residues of HEWL, synchronous fluorescence spectra of HEWL were recorded alone and in the presence of the metal complexes (electronic supplementary material, figure S5). By fixing the Δλ value, i.e. the difference between excitation and emission wavelengths, at 15 and 60 nm, synchronous fluorescence spectroscopy provides useful information on the microenvironmental changes of tyrosine and tryptophan residues of proteins, respectively. As shown in the electronic supplementary material, figure S5, all three metal complexes of diacetylcurcumin strongly quench the emission fluorescence of HEWL at both 15 and 60 nm. […] At Δλ = 15 nm, no shift in the emission maximum of HEWL is observed, whereas at Δλ = 60 nm, a 2 nm blue shift is observed in the emission spectrum of tryptophan residues of the protein after the interaction with the metal complexes of diacetylcurcumin except for the VO(DAC)2 complex. […] Overall, it can be concluded that the formation of HEWL/metal complex bioconjugates is associated with the binding of three metal complexes of diacetylcurcumin to both tyrosine and tryptophan residues in which the conformational changes can occur only around the tryptophan residues of the protein. It should be noted that the reduction in the polarity of the microregions surrounding tryptophan residues of the protein has already been observed by the intrinsic emission fluorescence titrations (see §3.1.1.)."}, "mouse lymphoma cells": {"test_system": "mouse lymphoma cells", "set-up": "method as in PMID 16171869", "conditions": "read-out: IC50 cytotoxicity; cited from earlier work"}, "Aβ42": {"test_system": "Aβ42", "conditions": "copper-induced Aβ42 cross-linking; cited from earlier work"}}, "data": [{"compound": "COc1cc(C=CC(=O)C=C([O-])C=Cc2ccc(OC(C)=O)c(OC)c2)ccc1OC(C)=O.COc1cc(C=CC(=O)C=C([O-])C=Cc2ccc(OC(C)=O)c(OC)c2)ccc1OC(C)=O.COc1cc(C=CC(=O)C=C([O-])C=Cc2ccc(OC(C)=O)c(OC)c2)ccc1OC(C)=O.[Ga+3]", "note": "[Ga(DAC)3, gallium diacetylcurcumin]", "values": [{"measurement": "n (number of binding sites on each HEWL molecule)", "setting": "[1]; T 293 K", "result": "(0.92 ± 0.02)"}, {"measurement": "ΔG^0 (Gibbs free energy change of binding)", "setting": "[1]; T 293 K", "result": "-21.26 ± 0.58", "unit": "kJ/mol"}, {"measurement": "KSV (Stern-Volmer quenching constant)", "setting": "[1]; T 293 K", "result": "(1.46 ± 0.02) × 10^+4 M^−1"}, {"measurement": "kq (bimolecular quenching rate constant)", "setting": "[1]; T 293 K", "result": "(1.46 ± 0.02) × 10^+12 M^−1 s^−1"}, {"measurement": "n (number of binding sites on each HEWL molecule)", "setting": "[1]; T 303 K", "result": "(0.80 ± 0.02)"}, {"measurement": "ΔG^0 (Gibbs free energy change of binding)", "setting": "[1]; T 303 K", "result": "-21.16 ± 0.58", "unit": "kJ/mol"}, {"measurement": "KSV (Stern-Volmer quenching constant)", "setting": "[1]; T 303 K", "result": "(1.30 ± 0.01) × 10^+4 M^−1"}, {"measurement": "kq (bimolecular quenching rate constant)", "setting": "[1]; T 303 K", "result": "(1.30 ± 0.01) × 10^+12 M^−1 s^−1"}, {"measurement": "n (number of binding sites on each HEWL molecule)", "setting": "[1]; T 308 K", "result": "(0.89 ± 0.02)"}, {"measurement": "ΔG^0 (Gibbs free energy change of binding)", "setting": "[1]; T 308 K", "result": "-21.11 ± 0.58", "unit": "kJ/mol"}, {"measurement": "KSV (Stern-Volmer quenching constant)", "setting": "[1]; T 308 K", "result": "(1.25 ± 0.01) × 10^+4 M^−1"}, {"measurement": "kq (bimolecular quenching rate constant)", "setting": "[1]; T 308 K", "result": "(1.25 ± 0.01) × 10^+12 M^−1 s^−1"}, {"measurement": "blue shift of HEWL emission maximum on quenching", "setting": "[1]; excitation 295 nm, emission maximum 345 nm", "result": 4, "unit": "nm"}, {"measurement": "fluorescence quenching mechanism", "setting": "[1]; from KSV versus temperature and kq", "result": "static mechanism"}, {"measurement": "main forces / modes of interaction stabilizing the bioconjugate", "setting": "[1]; from signs of ΔH^0 and ΔS^0", "result": "van der Waals interactions and hydrogen bonds"}, {"measurement": "binding constant, order of magnitude", "setting": "[1]; summary of table 1", "result": "10^+3 M^−1"}, {"measurement": "ΔH^0 (enthalpy change of binding)", "setting": "[1]; van't Hoff plot over 293–308 K", "result": "-24.34 ± 0.17", "unit": "kJ/mol"}, {"measurement": "ΔS^0 (entropy change of binding)", "setting": "[1]; van't Hoff plot over 293–308 K", "result": "−10.50 ± 0.55", "unit": "J mol^−1 K^−1"}, {"measurement": "microenvironment of tryptophan residues of HEWL", "setting": "[2]", "result": "more hydrophobic"}, {"measurement": "IC50", "setting": "mouse lymphoma cells", "result": "25 to 30", "unit": "µM"}]}, {"compound": "CRANAD-17", "values": [{"measurement": "effect on Aβ amyloid formation", "setting": "Aβ42", "result": "considerably reduces Aβ amyloid formation"}]}, {"compound": "COc1cc(C=CC(=O)CC(=O)C=Cc2ccc(O)c(OC)c2)ccc1O", "note": "[curcumin, 1,7-bis(4-hydroxy-3-methoxyphenyl)-1,6-heptadiene-3,5-dione]", "values": [{"measurement": "IC50", "setting": "mouse lymphoma cells", "result": "25 to 30", "unit": "µM"}]}]}
